Measured values: article PMC11477717, “Synthesis of Carborane–Thiazole Conjugates as Tyrosinase and 11β-Hydroxysteroid Dehydrogenase Inhibitors: Antiproliferative Activity and Molecular Docking Studies” (Molecules, 2024)
Read-outs that look alike come from different tables or passages of the source.

What was measured:
mushroom tyrosinase [1] = target: T1, mushroom tyrosinase (Agaricus bisporus, UniProt C7FF04); assay: Kinetic analysis of the inhibition of tyrosinase (Lineweaver-Burk); assay type: biochemical; conditions: compound at 0.05 mM; for Mechanism of Inhibition: Lineweaver-Burk plots; for Vmax: L-DOPA 100-250 µM
T1 construct: purchased Sigma-Aldrich
T1 sequence (C7FF04 1-392 limits assumed): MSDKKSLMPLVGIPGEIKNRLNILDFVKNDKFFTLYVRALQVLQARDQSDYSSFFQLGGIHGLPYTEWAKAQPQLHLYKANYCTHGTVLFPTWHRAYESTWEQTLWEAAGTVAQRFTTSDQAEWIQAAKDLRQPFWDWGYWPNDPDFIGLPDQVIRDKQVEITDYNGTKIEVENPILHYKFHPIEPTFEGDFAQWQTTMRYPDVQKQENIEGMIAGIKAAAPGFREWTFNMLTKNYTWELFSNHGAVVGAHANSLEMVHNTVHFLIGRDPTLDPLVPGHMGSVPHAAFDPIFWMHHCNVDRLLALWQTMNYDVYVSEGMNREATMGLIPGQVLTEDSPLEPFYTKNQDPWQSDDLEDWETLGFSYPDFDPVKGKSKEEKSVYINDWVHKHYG
Experimental: A series of experiments were performed to determine the inhibition kinetics of compounds by following the already reported method. The inhibitor concentrations for compounds were 50 and 100 µM. The substrate L-DOPA concentration was between 100 and 250 µM in all kinetic studies. Maximal initial velocity was determined from the initial linear portion of absorbance up to ten minutes after the addition of the enzyme. The inhibition type of the enzyme, Michaelis constant (KM), and maximal velocity (Vmax) were determined by Lineweaver–Burk plots of the inverse of velocities (1/V) versus the inverse of substrate concentration 1/[L-DOPA] mM^−1.

mushroom tyrosinase [2] = target: T1, mushroom tyrosinase; assay: Mushroom tyrosinase inhibition assay (L-DOPA, dopachrome 475 nm); assay type: biochemical
Experimental: The mushroom tyrosinase (Sigma-Aldrich) inhibition was performed following previously reported methods. […] The inhibitor solutions were prepared in DMSO with an initial concentration of 1 mM. Different aliquots were added to the solution containing the buffer, L-DOPA, and EDTA, with the enzyme being added last. […] Ascorbic acid was used as a reference inhibitor with an initial concentration of 1 mM. The IC50 values were calculated from the equation generated via exponential fit of the experimental data.

[3] = tested on: HUVEC (human umbilical vein endothelial cells); assay: MTT antiproliferative assay, HUVEC healthy control; assay type: cell-based; conditions: 72 h, HUVEC normal cells, read-out: IC50 ± SD HUVEC
Experimental: All cell lines were obtained from ATCC, and all chemicals were purchased from Sigma-Aldrich, St. Louis, MO, USA. Briefly, cells were cultivated in a controlled atmosphere using DMEM medium with fetal bovine serum (FBS) at a final concentration of 10% (A-172), an L15 medium with 15% FBS, cultivated without CO2 (MDA-MB-231), F12K with a heparin final concentration of 0.1 mg/mL, endothelial cell growth supplement with a final concentration of 0.03 mg/mL (HUVEC), and RPMI with 5% FBS. All media were supplemented with antibiotic and antimycotic solutions, according to the manufacturers’ instructions. MTT cytotoxicity assessments were performed as described previously. Briefly, cell lines A172, B16F10, MDA-MB-231, and HUVEC were seeded 24 h prior to the addition of the tested compounds. The cells counted using an automated cell counter (Countess® II FL, Invitrogen by Thermo Fisher Scientific Inc., Waltham, MA, USA) were plated in 96-well plates (Nunc Edge 2F, Thermo Fisher Scientific Inc.) at a density of 0.1 × 10^4 per well. After an additional 72 h, cells underwent an MTT cytotoxicity assay (see below). The IC50 values were calculated using ED50plus v 1.0 freeware software (Instituto Nacional de Enfermedades Respiratorias, Mexico City, Mexico). Each cell line was tested in three independent replicates.
Twenty microliters of an MTT solution (MTT: 3-(4,5-dimethylthiazol-2-yl)-2,5-diphenyl tetrazolium bromide, stock solution: 5 mg/mL) was added to each cell line for 2 h (A172, B16F10, MDA-MB-231, and HUVEC). After the incubation time was complete, the medium was removed and crystals of formazan were solubilized in pure isopropanol. The absorbance readout was conducted immediately using a plate reader, Multiskan Spectrum, at 570 nm (Thermo Fisher Scientific Inc., Waltham, MA, USA). The background optical density was measured in the wells filled with the culture medium, without any cells.

[4] = tested on: MDA-MB-231 (human breast adenocarcinoma); assay: MTT antiproliferative assay, MDA-MB-231; assay type: cell-based; conditions: for IC50: MTT, 72 h, MDA-MB-231 cells, read-out: IC50 ± SD MDA-MB-231; for SI HUVEC/ MDA-MB-231: selectivity index = IC50 normal cell line / IC50 cancer cell line
Experimental: (§1) All cell lines were obtained from ATCC, and all chemicals were purchased from Sigma-Aldrich, St. Louis, MO, USA. […] All media were supplemented with antibiotic and antimycotic solutions, according to the manufacturers’ instructions. MTT cytotoxicity assessments were performed as described previously. […] The cells counted using an automated cell counter (Countess® II FL, Invitrogen by Thermo Fisher Scientific Inc., Waltham, MA, USA) were plated in 96-well plates (Nunc Edge 2F, Thermo Fisher Scientific Inc.) at a density of 0.1 × 10^4 per well. After an additional 72 h, cells underwent an MTT cytotoxicity assay (see below). The IC50 values were calculated using ED50plus v 1.0 freeware software (Instituto Nacional de Enfermedades Respiratorias, Mexico City, Mexico). Each cell line was tested in three independent replicates.
(§2) After the incubation time was complete, the medium was removed and crystals of formazan were solubilized in pure isopropanol. The absorbance readout was conducted immediately using a plate reader, Multiskan Spectrum, at 570 nm (Thermo Fisher Scientific Inc., Waltham, MA, USA). The background optical density was measured in the wells filled with the culture medium, without any cells.

[5] = tested on: A172 (human brain glioblastoma); assay: MTT antiproliferative assay, A172; assay type: cell-based; conditions: for IC50: MTT, 72 h, A172 cells, read-out: IC50 ± SD A172; for SI HUVEC/A172: selectivity index = IC50 normal cell line / IC50 cancer cell line
Experimental: as §1, §2

B16F10 (murine melanoma) = assay: MTT antiproliferative assay, B16F10; assay type: cell-based; conditions: for IC50: MTT, 72 h, B16F10 cells, read-out: IC50 ± SD B16F10; for SI HUVEC/ B16F10: selectivity index = IC50 normal cell line / IC50 cancer cell line
Experimental: as §1, §2

11β-HSD2 = target: T2, 11β-HSD2 (Homo sapiens, UniProt P80365); assay: Inhibition of 11β-HSD2 assay (cortisol to cortisone, microsomes, cortisol ELISA); assay type: biochemical; conditions: inhibitor 10 µM, 150 min, 37 °C
T2 construct: Human kidney microsomes, mixed gender, 0.5 mL, 10 mg/mL, Lot No. 1710160, were obtained from XenoTech; tissue XenoTech Lot No. 1710160; host or cells: human kidney microsomes
T2 sequence (P80365 1-405): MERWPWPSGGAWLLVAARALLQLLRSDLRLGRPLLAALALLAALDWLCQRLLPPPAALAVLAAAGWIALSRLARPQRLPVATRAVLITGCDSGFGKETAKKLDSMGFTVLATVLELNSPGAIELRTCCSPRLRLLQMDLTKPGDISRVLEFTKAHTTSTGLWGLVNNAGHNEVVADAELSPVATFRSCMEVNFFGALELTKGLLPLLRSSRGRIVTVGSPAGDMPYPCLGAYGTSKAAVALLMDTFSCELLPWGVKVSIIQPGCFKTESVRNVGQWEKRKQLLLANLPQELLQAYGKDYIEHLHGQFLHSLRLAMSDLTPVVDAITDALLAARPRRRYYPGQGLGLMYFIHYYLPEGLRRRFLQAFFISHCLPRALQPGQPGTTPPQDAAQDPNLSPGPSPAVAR
Experimental: The Enzyme-Linked Immunosorbent Assay (ELISA) Kit for 11-Beta-Hydroxysteroid Dehydrogenase Type 1, Lot No. L160706125, was obtained from Cloud-Clone Corp. PBS, Lot No. H161008, was obtained from Pan Biotech. […] The Enzyme-Linked Immunosorbent Assay (ELISA) Kit for 11-Beta-Hydroxysteroid Dehydrogenase Type 2, Lot No. L191113457, was obtained from Cloud-Clone Corp.
The oxidation reaction of cortisol to cortisone was carried out on 96-well microtiter plates in the presence of the enzyme 11β-HSD2 in a total volume of 100 µL. To this end, 60 µL of phosphate buffer (pH 7.4), 10 µL of a microsomes(0.12 µg/mL […]) solution in PBS (final quantity 2.5 µg), 20 µL of substrate mixture cortisol/NAD (final concentration 200 nM/2 mM), and 10 µL of the appropriate inhibitor solution (solvent DMSO/water 1/99, final concentration 10 µM) were placed in each well. The microplates were incubated on an orbital shaker for 150 min at 37 °C. […] The quantity of unreacted cortisol was determined using a cortisol ELISA kit DiaMetra.

11β-HSD1 = target: T3, 11β-HSD1 (Homo sapiens, UniProt P28845); assay: Inhibition of 11β-HSD1 assay (cortisone to cortisol, microsomes, cortisol ELISA); assay type: biochemical
T3 construct: tissue XenoTech Lot No. 1410013; host or cells: pooled human liver microsomes
T3 sequence (P28845 whole entry): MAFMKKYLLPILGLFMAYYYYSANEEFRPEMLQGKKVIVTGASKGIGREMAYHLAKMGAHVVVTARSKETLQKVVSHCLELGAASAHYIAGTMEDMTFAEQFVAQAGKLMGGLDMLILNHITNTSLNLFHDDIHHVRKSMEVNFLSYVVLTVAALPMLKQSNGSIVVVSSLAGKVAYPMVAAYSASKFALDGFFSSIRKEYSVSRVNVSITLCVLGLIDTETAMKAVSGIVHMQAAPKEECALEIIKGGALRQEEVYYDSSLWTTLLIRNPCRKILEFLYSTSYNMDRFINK
Experimental: L160706125, was obtained from Cloud-Clone Corp. PBS, Lot No. H161008, was obtained from Pan Biotech. […] L191113457, was obtained from Cloud-Clone Corp. […] The microplates were incubated on an orbital shaker for 150 min at 37 °C. […] The quantity of cortisol formed from cortisone was determined using a cortisol ELISA kit, […].

[6] = L-DOPA 0.17 mM, pH 6.8, room temperature, read-out: IC50 ± SD mushroom tyrosinase
[7] = rounded values in SAR summary, unit mM, read-out: IC50 tyrosinase inhibition
[8] = inhibitor 10 µM, 150 min, 37 °C

Molecule: 2-(2-(1,2-Dicarba-closo-Dodecaboranylmethylene)Hydrazinyl)-4-(3,4,5-Trimethoxyphenyl)Thiazole [4i]
- Mechanism of Inhibition (mushroom tyrosinase [1]): Mixed
- Vmax (mushroom tyrosinase [1]): 0.5474 mM/min
- IC50 (mushroom tyrosinase [2]; [6]): 0.18 ± 0.00783 mM
- IC50 [3]: > 10 µM
- IC50 [4]: > 10 µM
- IC50 [5]: > 10 µM
- IC50 (B16F10 (murine melanoma)): 5.88 µM
- SI HUVEC/ B16F10 (B16F10 (murine melanoma)): >1.70

Molecule: 2-(2-(1,2-Dicarba-closo-Dodecaboranylmethylene)Hydrazinyl)-4-(3,4-Dichlorophenyl)Thiazole [4e]
- % of 11β-HSD2 Inhibition 10 μM (11β-HSD2): 19.34%
- Mechanism of Inhibition (mushroom tyrosinase [1]): Activator
- Vmax (mushroom tyrosinase [1]): 0.1575 mM/min
- IC50 (mushroom tyrosinase [2]; [6]): 0.142 ± 0.013 mM
- IC50 (mushroom tyrosinase [2]; [7]): 0.142 mM
- IC50 [3]: 7.86 ± 0.61 µM
- IC50 [4]: 6.99 ± 2.27 µM
- SI HUVEC/ MDA-MB-231 [4]: 1.12
- IC50 [5]: 6.44 ± 0.6 µM
- SI HUVEC/A172 [5]: 1.22
- IC50 (B16F10 (murine melanoma)): 5.58 ± 0.35 µM
- SI HUVEC/ B16F10 (B16F10 (murine melanoma)): 1.41
- IC50 (11β-HSD1; 5 inhibitor concentrations, three independent determinations, read-out: IC50 ± SD 11β-HSD1): 7.9 ± 1.4 µM
- % of 11β-HSD1 Inhibition 10 μM (11β-HSD1; [8]): 62.17%
- IC50 (11β-HSD1; values in SAR summary, unit inferred, read-out: IC50 11β-HSD1 (unit inferred)): 7.9 to 8.1 µM

Molecule: 4-(2-(2-(1,2-Dicarba-closo-Dodecaboranylmethylene)Hydrazinyl)Thiazol-4-yl)Benzene-1-Sulfonyl Fluoride [4j]
- Mechanism of Inhibition (mushroom tyrosinase [1]): Mixed
- Vmax (mushroom tyrosinase [1]): 0.7876 mM/min
- IC50 [3]: > 10 µM
- IC50 [4]: 6.43 ± 0.23 µM
- SI HUVEC/ MDA-MB-231 [4]: >1.56
- IC50 [5]: 6.4 ± 0.71 µM
- SI HUVEC/A172 [5]: >1.56
- IC50 (B16F10 (murine melanoma)): 5.75 ± 0.46 µM
- SI HUVEC/ B16F10 (B16F10 (murine melanoma)): >1.74

Molecule: 4-(2-(2-(1,2-Dicarba-closo-Dodecaboranylmethylene)Hydrazinyl)Thiazol-4-yl)Benzonitrile [4h]
- Mechanism of Inhibition (mushroom tyrosinase [1]): Mixed
- Vmax (mushroom tyrosinase [1]): 0.1258 mM/min
- IC50 [3]: 6.17 ± 0.35 µM
- IC50 [4]: 6.64 ± 0.81 µM
- SI HUVEC/ MDA-MB-231 [4]: 0.93
- IC50 [5]: 7.72 ± 1.25 µM
- SI HUVEC/A172 [5]: 0.80
- IC50 (B16F10 (murine melanoma)): 5.56 ± 0.3 µM
- SI HUVEC/ B16F10 (B16F10 (murine melanoma)): 1.11

Molecule: 4-(Adamant-1-yl)-2-(2-(1,2-Dicarba-closo-Dodecaboranylmethylene)Hydrazinyl)Thiazole [4k]
- Mechanism of Inhibition (mushroom tyrosinase [1]): Mixed
- Vmax (mushroom tyrosinase [1]): 0.7863 mM/min
- IC50 (mushroom tyrosinase [2]; [6]): 0.134 ± 0.00584 mM
- IC50 (mushroom tyrosinase [2]; [7]): 0.134 mM
- IC50 [3]: 5.86 ± 0.34 µM
- IC50 [4]: > 10 µM
- IC50 [5]: > 10 µM
- IC50 (B16F10 (murine melanoma)): > 10 µM

Molecule: O=C1O[C@H]([C@@H](O)CO)C(O)=C1O [Ascorbic acid, reference compound]
- IC50 (mushroom tyrosinase [2]; [6]): 0.387 ± 0.012 mM

Molecule: CC1(C)[C@@H](OC(=O)CCC(=O)O)CC[C@]2(C)[C@H]3C(=O)C=C4[C@@H]5C[C@@](C)(C(=O)O)CC[C@]5(C)CC[C@@]4(C)[C@]3(C)CC[C@@H]12 [Carbenoxolone, carbenoxolone, reference compound]
- inhibition at 10 µM (11β-HSD1; [8]): 88.9%

Molecule: O=C(O)CCCc1ccc(N(CCCl)CCCl)cc1 [chlorambucil, reference compound]
- IC50 ([3]; Homo sapiens): 7.43 ± 0.54 µM
- IC50 ([4]; Homo sapiens): > 10 µM
- IC50 ([5]; Homo sapiens, A 172): > 10 µM
- IC50 (B16F10 (murine melanoma); Mus musculus, B16-F10): 5.44 ± 0.19 µM
- SI HUVEC/ B16F10 (B16F10 (murine melanoma)): 1.37
